Measurements as given in patent US20090203780A1, “Use of a Polyunsaturated Fatty Acid Compound” (priority 2006, published 2009).

Test system: enteroendocrine STC1-1 cell line
Test: not given
Conditions: negative control fatty acid; cited from earlier work
In the case of `CCCCCCCCCC(=O)O` [Capric acid], the “Induction of CCK (already known)” value is listed as “does not induce CCK”.

Test system: enteroendocrine STC1-1 cell line
Test: CCK release from intestinal cells (in-vitro trial, CCK RIA)
Assay type: cell-based
Parameters: CCK release (Effects of fatty acids on CCK release): unit not given here
Conditions: 100 μM, 1 hour
Procedure: The relative CCK release by a number of different compounds was determined in an in-vitro trial to measure the effect of various free fatty acids on CCK release from intestinal cells.
The enteroendocrine STC1-1 cell line was cultivated at 37° C. in a 5% CO2, 95% air atmosphere in standard culture medium (DMEM). Cells were routinely passaged upon reaching 70-80% confluency by washing the cell layer with PBS and incubating with a solution of trypsin-EDTA. Plating density of 2×10^6 cells by 75 cm^2 was used for routine subculture.
STC1 cells were seeded into 6-well culture plates and incubated with control culture medium, with or without the tested agents, for 1 hour. All agents were tested at a 100 μM concentration in the free fatty acid form. Since fatty acids were diluted into ethanol the effect of ethanol was tested and indicated the baseline CCK levels. […] Effects of bombesin was used as positive control. At the end of incubation the supernatant was collected, centrifuged and immediately frozen at −20° C. for RIA.
Cell viability was checked by microscopic analysis using an MTT cytotoxicity assay, and in addition LDH release was measured.
CCK release was measured using a standard CCK RIA and effects of fatty acids were measured in 6-fold.
With `CCCCCC=CCC=CCC=CCC=CCCCC(=O)O` [Arachidonic acid (20:4), 5,8,11,14-eicosatetraenoic acid] the “CCK release compared with other fatty acids (in words)” value was “higher level of CCK release than other related fatty acids”.

Same assay, conditions: 100 microM, free fatty acid form, 1 hour incubation, RIA of supernatant, measured in 6-fold, ethanol baseline 53
For `CCCCCC/C=C/C=C/CCCCCCCC(=O)O` (single isomer, unassigned) [CLA 9, 11 isomer], the “CCK release (Effects of fatty acids on CCK release)” value was 135. In the case of `CCCCCC=CC=CCCCCCCCCC(=O)O` (single isomer, unassigned) [CLA 10, 12 isomer], the “CCK release (Effects of fatty acids on CCK release)” value is reported as 133. With `CCCC/C=C/C=C/C=C\CCCCCCCC(=O)O` [Alpha-eleostearic acid (18:3), Alpha-eleostearic acid] the “CCK release (Effects of fatty acids on CCK release)” value was 212. In the case of `CC/C=C\C/C=C\C/C=C\CCCCCCCC(=O)O` [Alpha-linolenic acid (18:3), Alpha-linolenic acid], the “CCK release (Effects of fatty acids on CCK release)” value is reported as 177. In the case of `CCCCCC=CCC=CCC=CCC=CCCCC(=O)O` [Arachidonic acid (20:4), 5,8,11,14-eicosatetraenoic acid], the “CCK release (Effects of fatty acids on CCK release)” value is reported as 392. For `CCCCCCCCCC(=O)O` [Capric acid], the “CCK release (Effects of fatty acids on CCK release)” value was 43. In the case of `CC/C=C\C/C=C\C/C=C\C/C=C\C/C=C\CCCC(=O)O` [Eicosapentanoic acid (20:5), Eicosapentanoic acid], the “CCK release (Effects of fatty acids on CCK release)” value is reported as 164. With `CCCCC=CC=CC=CCCCCCCCC(=O)O` [Gamma-eleostearic acid (18:3), Gamma-eleostearic acid] the “CCK release (Effects of fatty acids on CCK release)” value was 126. With `CCCCC/C=C\C/C=C\C/C=C\CCCCC(=O)O` [Gamma-linolenic acid (18:3), Gamma-linolenic acid] the “CCK release (Effects of fatty acids on CCK release)” value was 140. With `CC/C=C\C/C=C\C/C=C\CCCC/C=C\CCCC(=O)O` [Juniperonic acid (20:4), Juniperonic acid] the “CCK release (Effects of fatty acids on CCK release)” value was 97. For `CCCCCCCCCCCC(=O)O` [Lauric acid], the “CCK release (Effects of fatty acids on CCK release)” value was 118. For `CCCCC/C=C\C/C=C\CCCCCCCC(=O)O` [Linoleic acid (18:2), Linoleic acid], the “CCK release (Effects of fatty acids on CCK release)” value was 68. In the case of `CCCCCCCC/C=C\CCCCCCCC(=O)O` [Oleic acid (18:1), Oleic acid], the “CCK release (Effects of fatty acids on CCK release)” value is reported as 90. For `CCCC\C=C/C=C/C=C\CCCCCCCC(=O)O` [Punicic acid (18:3), Punicic acid], the “CCK release (Effects of fatty acids on CCK release)” value was 320. For `CCCCC/C=C\C/C=C\CCCC/C=C\CCCC(=O)O` [Sciadonic acid (20:3), Sciadonic acid], the “CCK release (Effects of fatty acids on CCK release)” value was 79. With `CC/C=C\C/C=C\C/C=C\C/C=C\CCCCC(=O)O` [Stearidonic acid (18:4), Stearidonic acid] the “CCK release (Effects of fatty acids on CCK release)” value was 69. With `CCCCCCCC/C=C\CC/C=C\CCCC(=O)O` [Taxoleic acid (18:2)] the “CCK release (Effects of fatty acids on CCK release)” value was 82. With conjugated linoleic acid [CLA] the “CCK release (Effects of fatty acids on CCK release)” value was 87.
